Reference: patent US20250171498A1, “ANTIBIOTIC COMPOUNDS, FORMULATIONS AND METHODS OF USE” (UNIVERSITEIT LEIDEN, priority 2022, published 2025)
≈ marks a conversion by molar mass, not a printed value. *1 amine or outer side, *2 acyl side, *3 side chain or, on linkers, in order; H or OH if unused. Where a SMILES comes first, the peptide text is derived from it. Bridges are numbered along the chain shown (N, C = ends). [ ]: non-standard residue; d: D form. The star is where a group is joined. Phenylthio(4-OPh) = c1ccc(Oc2ccc(S*)cc2)cc1; X1 = CC(C)CCCCC[C@@H](N[*:1])C(=O)[*:2]; S(2-cyclohexylethyl) = C1CCC(CCS*)CC1; dPen = CC(C)(S)[C@@H](N)C(=O)O; X3 = O=C(OCCSSCc1cccc(Cl)c1)*; S(3-Methylbutyl) = CC(C)CCS*; X4 = c1ccc(-c2ccc(S*)cc2)cc1; dDab = NCC[C@@H](N)C(=O)O; dDap = NC[C@@H](N)C(=O)O; Dab = NCC[C@H](N)C(=O)O; X2 = CC(C)CCSSCCOC(=O)*; Dap = NC[C@H](N)C(=O)O; X5 = CC(C)CCCCS*; Mpa = O=C(O)CCS

Tests used:
Type in all cases: cell-based
[1] = tested on: A. Baumanni (ATCC 19606); details: ATCC 19606
Protocol: (§1) Compounds were prepared according to scheme 2, 3, 4, 6, 7, or 8 above, preparing different sets of compounds with different substitution patterns. All polymyxin analogues prepared were tested for their anti-bacterial activity on relevant Gram-negative strains (Table B). Polymyxin B and PMBN were taken along as references. In addition, the toxicity on renal Proximal Tubular Epithelial Cells (PTECs) was evaluated.
(§2) 3rd Generation compounds were also subjected to testing for their anti-bacterial activity on relevant Gram-negative strains (Table C). Polymyxin B and PMBN were taken along as references. In addition, the toxicity on renal Proximal Tubular Epithelial Cells (PTECs) was evaluated, see Table C.

[2] = tested on: E. Coli (ATCC 25922); details: ATCC 25922
Protocol: as §1, §2

[3] = tested on: K. Pneumoniae (ATCC 13883); details: ATCC 13883
Protocol: as §1, §2

[4] = tested on: P. Aeruginosa (ATCC 27853); details: ATCC 27853
Protocol: as §1, §2

[5] = tested on: renal Proximal Tubular Epithelial Cells (PTECs); assay: Toxicity on renal Proximal Tubular Epithelial Cells
Protocol: as §1, §2

| MIC A. Baumanni (ATCC 19606) [1] | MIC E. Coli (ATCC 25922) [2] | MIC K. Pneumoniae (ATCC 13883) [3] | MIC P. Aeruginosa (ATCC 27853) [4] | Compound | PTEC Toxicity (relative to polymyxin B) [5] |
| --- | --- | --- | --- | --- | --- |
| 0.25 µg/mL (≈ 0.224 µM) | 1 µg/mL (≈ 0.894 µM) | 0.25 µg/mL (≈ 0.224 µM) | 1 µg/mL (≈ 0.894 µM) | CC(C)CCCCC[C@@H](N)C(=O)N[C@H](C(=O)N[C@@H](CN)C(=O)N[C@H]1CCNC(=O)[C@H]([C@@H](C)O)NC(=O)[C@H](CCN)NC(=O)[C@H](CCN)NC(=O)[C@H](CC(C)C)NC(=O)[C@@H](Cc2ccccc2)NC(=O)[C@H](CCN)NC1=O)[C@@H](C)O (H-[X1]T[Dap][Dab][Dab][dF]L[Dab][Dab]T; lactam 4-C) | 7.8 |
| 0.5 µg/mL (≈ 0.429 µM) | 2 µg/mL (≈ 1.72 µM) | 1 µg/mL (≈ 0.858 µM) | 2 µg/mL (≈ 1.72 µM) | CC(C)C[C@@H]1NC(=O)[C@@H](Cc2ccccc2)NC(=O)[C@H](CCN)NC(=O)[C@@H](NC(=O)CNC(=O)[C@@H](NC(=O)[C@H](N)CSSCCC2CCCCC2)[C@@H](C)O)CCNC(=O)[C@H]([C@@H](C)O)NC(=O)[C@H](CCN)NC(=O)[C@H](CCN)NC1=O (H-[dC](S(2-cyclohexylethyl))TG[Dab][Dab][dF]L[Dab][Dab]T; lactam 4-C) | 7.4 |
| 0.5 µg/mL (≈ 0.419 µM) | 1 µg/mL (≈ 0.837 µM) | 1 µg/mL (≈ 0.837 µM) | 2 µg/mL (≈ 1.67 µM) | CC(C)C[C@@H]1NC(=O)[C@@H](Cc2ccccc2)NC(=O)[C@H](CCN)NC(=O)[C@@H](NC(=O)[C@H](CN)NC(=O)[C@@H](NC(=O)[C@H](N)CSSCCC2CCCCC2)[C@@H](C)O)CCNC(=O)[C@H]([C@@H](C)O)NC(=O)[C@H](CCN)NC(=O)[C@H](CCN)NC1=O (H-[dC](S(2-cyclohexylethyl))T[Dap][Dab][Dab][dF]L[Dab][Dab]T; lactam 4-C) | 2.9 |
| 0.5 µg/mL (≈ 0.414 µM) | 2 µg/mL (≈ 1.65 µM) | 1 µg/mL (≈ 0.827 µM) | 2 µg/mL (≈ 1.65 µM) | CC(C)C[C@@H]1NC(=O)[C@@H](Cc2ccccc2)NC(=O)[C@H](CCN)NC(=O)[C@@H](NC(=O)[C@@H](CCN)NC(=O)[C@@H](NC(=O)[C@H](N)CSSCCC2CCCCC2)[C@@H](C)O)CCNC(=O)[C@H]([C@@H](C)O)NC(=O)[C@H](CCN)NC(=O)[C@H](CCN)NC1=O (H-[dC](S(2-cyclohexylethyl))T[dDab][Dab][Dab][dF]L[Dab][Dab]T; lactam 4-C) | 4.8 |
| 4 µg/mL (≈ 3.34 µM) | 2 µg/mL (≈ 1.67 µM) | 2 µg/mL (≈ 1.67 µM) | 2 µg/mL (≈ 1.67 µM) | CC(C)CCSSC(C)(C)[C@@H](N)C(=O)N[C@H](C(=O)N[C@@H](CCN)C(=O)N[C@H]1CCNC(=O)[C@H]([C@@H](C)O)NC(=O)[C@H](CCN)NC(=O)[C@H](CCN)NC(=O)[C@H](CC(C)C)NC(=O)[C@@H](Cc2ccccc2)NC(=O)[C@H](CCN)NC1=O)[C@@H](C)O (H-[dPen](S(3-Methylbutyl))T[Dab][Dab][Dab][dF]L[Dab][Dab]T; lactam 4-C) | – |
| 4 µg/mL (≈ 3.44 µM) | 2 µg/mL (≈ 1.72 µM) | 2 µg/mL (≈ 1.72 µM) | 2 µg/mL (≈ 1.72 µM) | CC(C)CCSSC(C)(C)[C@@H](N)C(=O)N[C@H](C(=O)N[C@@H](CCN)C(=O)N[C@H]1CCNC(=O)[C@H]([C@@H](C)O)NC(=O)[C@H](CCN)NC(=O)[C@H](CCN)NC(=O)[C@H](CC(C)C)NC(=O)[C@@H](CC(C)C)NC(=O)[C@H](CCN)NC1=O)[C@@H](C)O (H-[dPen](S(3-Methylbutyl))T[Dab][Dab][Dab][dL]L[Dab][Dab]T; lactam 4-C) | – |
| 1 µg/mL (≈ 0.846 µM) | 2 µg/mL (≈ 1.69 µM) | 1 µg/mL (≈ 0.846 µM) | 2 µg/mL (≈ 1.69 µM) | CC(C)CCSSC(C)(C)[C@@H](N)C(=O)N[C@H](C(=O)N[C@@H](CN)C(=O)N[C@H]1CCNC(=O)[C@H]([C@@H](C)O)NC(=O)[C@H](CCN)NC(=O)[C@H](CCN)NC(=O)[C@H](CC(C)C)NC(=O)[C@@H](Cc2ccccc2)NC(=O)[C@H](CCN)NC1=O)[C@@H](C)O (H-[dPen](S(3-Methylbutyl))T[Dap][Dab][Dab][dF]L[Dab][Dab]T; lactam 4-C) | – |
| 2 µg/mL (≈ 1.74 µM) | 2 µg/mL (≈ 1.74 µM) | 1 µg/mL (≈ 0.871 µM) | 2 µg/mL (≈ 1.74 µM) | CC(C)CCSSC(C)(C)[C@@H](N)C(=O)N[C@H](C(=O)N[C@@H](CN)C(=O)N[C@H]1CCNC(=O)[C@H]([C@@H](C)O)NC(=O)[C@H](CCN)NC(=O)[C@H](CCN)NC(=O)[C@H](CC(C)C)NC(=O)[C@@H](CC(C)C)NC(=O)[C@H](CCN)NC1=O)[C@@H](C)O (H-[dPen](S(3-Methylbutyl))T[Dap][Dab][Dab][dL]L[Dab][Dab]T; lactam 4-C) | – |
| – | 8 µg/mL (≈ 6.84 µM) | 8 µg/mL (≈ 6.84 µM) | 2 µg/mL (≈ 1.71 µM) | CC(C)CCSSCCOC(=O)N[C@H](C(=O)N[C@@H](CCN)C(=O)N[C@H]1CCNC(=O)[C@H]([C@@H](C)O)NC(=O)[C@H](CCN)NC(=O)[C@H](CCN)NC(=O)[C@H](CC(C)C)NC(=O)[C@@H](Cc2ccccc2)NC(=O)[C@H](CCN)NC1=O)[C@@H](C)O (X2-T[Dab][Dab][Dab][dF]L[Dab][Dab]T; lactam 3-C) | 0.9 |
| – | 4 µg/mL (≈ 3.46 µM) | 2 µg/mL (≈ 1.73 µM) | 2 µg/mL (≈ 1.73 µM) | CC(C)CCSSCCOC(=O)N[C@H](C(=O)N[C@H](CN)C(=O)N[C@H]1CCNC(=O)[C@H]([C@@H](C)O)NC(=O)[C@H](CCN)NC(=O)[C@H](CCN)NC(=O)[C@H](CC(C)C)NC(=O)[C@@H](Cc2ccccc2)NC(=O)[C@H](CCN)NC1=O)[C@@H](C)O (X2-T[dDap][Dab][Dab][dF]L[Dab][Dab]T; lactam 3-C) | 2.9 |
| – | 4 µg/mL (≈ 3.27 µM) | 1 µg/mL (≈ 0.817 µM) | 1 µg/mL (≈ 0.817 µM) | CC(C)C[C@@H]1NC(=O)[C@@H](Cc2ccccc2)NC(=O)[C@H](CCN)NC(=O)[C@@H](NC(=O)[C@H](CCN)NC(=O)[C@@H](NC(=O)OCCSSCc2cccc(Cl)c2)[C@@H](C)O)CCNC(=O)[C@H]([C@@H](C)O)NC(=O)[C@H](CCN)NC(=O)[C@H](CCN)NC1=O (X3-T[Dab][Dab][Dab][dF]L[Dab][Dab]T; lactam 3-C) | 1.3 |
| – | 8 µg/mL (≈ 6.61 µM) | 4 µg/mL (≈ 3.31 µM) | 4 µg/mL (≈ 3.31 µM) | CC(C)C[C@@H]1NC(=O)[C@@H](Cc2ccccc2)NC(=O)[C@H](CCN)NC(=O)[C@@H](NC(=O)[C@H](CN)NC(=O)[C@@H](NC(=O)OCCSSCc2cccc(Cl)c2)[C@@H](C)O)CCNC(=O)[C@H]([C@@H](C)O)NC(=O)[C@H](CCN)NC(=O)[C@H](CCN)NC1=O (X3-T[Dap][Dab][Dab][dF]L[Dab][Dab]T; lactam 3-C) | 0.8 |
| – | 8 µg/mL (≈ 6.39 µM) | 2 µg/mL (≈ 1.6 µM) | 2 µg/mL (≈ 1.6 µM) | CC(C)C[C@@H]1NC(=O)[C@@H](Cc2ccccc2)NC(=O)[C@H](CCN)NC(=O)[C@@H](NC(=O)[C@H](CCN)NC(=O)[C@@H](NC(=O)CCSSc2ccc(Oc3ccccc3)cc2)[C@@H](C)O)CCNC(=O)[C@H]([C@@H](C)O)NC(=O)[C@H](CCN)NC(=O)[C@H](CCN)NC1=O ([Mpa](Phenylthio(4-OPh))T[Dab][Dab][Dab][dF]L[Dab][Dab]T; lactam 4-C) | – |
| – | 4 µg/mL (≈ 3.35 µM) | 2 µg/mL (≈ 1.68 µM) | 2 µg/mL (≈ 1.68 µM) | CC(C)C[C@@H]1NC(=O)[C@@H](Cc2ccccc2)NC(=O)[C@H](CCN)NC(=O)[C@@H](NC(=O)[C@H](CCN)NC(=O)[C@@H](NC(=O)CCSSCCC2CCCCC2)[C@@H](C)O)CCNC(=O)[C@H]([C@@H](C)O)NC(=O)[C@H](CCN)NC(=O)[C@H](CCN)NC1=O ([Mpa](S(2-cyclohexylethyl))T[Dab][Dab][Dab][dF]L[Dab][Dab]T; lactam 4-C) | – |
| – | 8 µg/mL (≈ 6.47 µM) | 2 µg/mL (≈ 1.62 µM) | 4 µg/mL (≈ 3.24 µM) | CC(C)C[C@@H]1NC(=O)[C@@H](Cc2ccccc2)NC(=O)[C@H](CCN)NC(=O)[C@@H](NC(=O)[C@H](CCN)NC(=O)[C@@H](NC(=O)CCSSc2ccc(-c3ccccc3)cc2)[C@@H](C)O)CCNC(=O)[C@H]([C@@H](C)O)NC(=O)[C@H](CCN)NC(=O)[C@H](CCN)NC1=O ([Mpa](X4)T[Dab][Dab][Dab][dF]L[Dab][Dab]T; lactam 4-C) | – |
| – | 4 µg/mL (≈ 3.39 µM) | 2 µg/mL (≈ 1.69 µM) | 2 µg/mL (≈ 1.69 µM) | CC(C)CCCCSSCCC(=O)N[C@H](C(=O)N[C@@H](CCN)C(=O)N[C@H]1CCNC(=O)[C@H]([C@@H](C)O)NC(=O)[C@H](CCN)NC(=O)[C@H](CCN)NC(=O)[C@H](CC(C)C)NC(=O)[C@@H](Cc2ccccc2)NC(=O)[C@H](CCN)NC1=O)[C@@H](C)O ([Mpa](X5)T[Dab][Dab][Dab][dF]L[Dab][Dab]T; lactam 4-C) | – |
| 0.5 µg/mL (≈ 0.414 µM) | 1 µg/mL (≈ 0.827 µM) | – | 2 µg/mL (≈ 1.65 µM) | CC(C)C[C@@H]1NC(=O)[C@@H](Cc2ccccc2)NC(=O)[C@H](CCN)NC(=O)[C@@H](NC(=O)[C@H](CCN)NC(=O)[C@@H](NC(=O)[C@H](N)CSSCCC2CCCCC2)[C@@H](C)O)CCNC(=O)[C@H]([C@@H](C)O)NC(=O)[C@H](CCN)NC(=O)[C@H](CCN)NC1=O [drawing 128] (H-[dC](S(2-cyclohexylethyl))T[Dab][Dab][Dab][dF]L[Dab][Dab]T; lactam 4-C) | 1.2 |
